Common to all, as to assay type: biochemical
For assay [1], the target named is T1, human JAK1 (a.a. 837-1142) (Homo sapiens, UniProt P23458).
T1 construct: human JAK1 (a.a. 837-1142); His tag (N); made in house; host or cells: insect cells (baculovirus)
The assay can be described thus: In vitro JAK kinase assay (HTRF, phosphorylation of a biotinylated peptide), JAK1. In a few lines: (§1)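 Phosphorylation of a biotinylated peptide by the JAK kinase domain, detected by HTRF with Eu-Py20 and SA-APC. ATP was 90 μM for JAK1, 30 μM for JAK2 and 3 μM for JAK3. Reactions ran 1 h at room temperature and were stopped with EDTA, followed by 40 min antibody binding.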
A general note: In TR-FRET formats the signal depends on donor and acceptor labels being close together.

The target in a further assay is TYK2 (Homo sapiens, UniProt P29597). As to the kind of experiment: TYK2 kinase inhibition (Table A1).
TYK2, sequence (P29597 whole entry): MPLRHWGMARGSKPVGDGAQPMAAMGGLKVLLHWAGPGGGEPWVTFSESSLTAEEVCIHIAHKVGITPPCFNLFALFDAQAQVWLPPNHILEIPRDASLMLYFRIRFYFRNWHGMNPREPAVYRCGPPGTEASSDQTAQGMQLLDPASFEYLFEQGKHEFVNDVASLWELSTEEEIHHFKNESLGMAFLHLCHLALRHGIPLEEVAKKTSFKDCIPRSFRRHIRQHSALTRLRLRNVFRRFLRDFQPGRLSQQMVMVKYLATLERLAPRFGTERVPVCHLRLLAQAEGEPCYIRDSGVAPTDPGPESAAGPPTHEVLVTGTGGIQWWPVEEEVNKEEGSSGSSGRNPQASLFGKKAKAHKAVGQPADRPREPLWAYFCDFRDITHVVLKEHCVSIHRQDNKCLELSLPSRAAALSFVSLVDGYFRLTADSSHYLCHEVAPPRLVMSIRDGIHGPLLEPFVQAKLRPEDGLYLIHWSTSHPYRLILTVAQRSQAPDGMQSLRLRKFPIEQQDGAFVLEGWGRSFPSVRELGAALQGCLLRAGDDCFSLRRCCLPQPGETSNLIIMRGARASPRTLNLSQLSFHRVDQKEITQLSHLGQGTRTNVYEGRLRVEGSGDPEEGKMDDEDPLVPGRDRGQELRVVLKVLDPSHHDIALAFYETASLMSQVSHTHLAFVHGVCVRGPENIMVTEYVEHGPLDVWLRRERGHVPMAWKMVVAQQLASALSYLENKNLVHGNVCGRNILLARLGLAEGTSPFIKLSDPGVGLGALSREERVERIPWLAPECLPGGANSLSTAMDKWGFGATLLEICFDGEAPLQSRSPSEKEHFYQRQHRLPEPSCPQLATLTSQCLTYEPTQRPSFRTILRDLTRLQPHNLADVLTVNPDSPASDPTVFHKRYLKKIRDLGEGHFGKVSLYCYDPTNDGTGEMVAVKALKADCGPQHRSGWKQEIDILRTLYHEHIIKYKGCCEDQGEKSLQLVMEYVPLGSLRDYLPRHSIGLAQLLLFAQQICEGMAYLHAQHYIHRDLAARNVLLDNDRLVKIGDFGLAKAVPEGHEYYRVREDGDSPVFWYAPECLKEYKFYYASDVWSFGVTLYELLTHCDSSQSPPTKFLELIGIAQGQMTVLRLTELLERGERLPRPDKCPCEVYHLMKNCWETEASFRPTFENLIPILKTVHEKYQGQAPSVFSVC
For assay [2], the target named is T2, human JAK3 (a.a. 781-1124) (Homo sapiens, UniProt P52333).
T2 construct: JAK3 (a.a. 781-1124); His tag (N); made in house; host or cells: insect cells (baculovirus)
T2 sequence (P52333 781-1124): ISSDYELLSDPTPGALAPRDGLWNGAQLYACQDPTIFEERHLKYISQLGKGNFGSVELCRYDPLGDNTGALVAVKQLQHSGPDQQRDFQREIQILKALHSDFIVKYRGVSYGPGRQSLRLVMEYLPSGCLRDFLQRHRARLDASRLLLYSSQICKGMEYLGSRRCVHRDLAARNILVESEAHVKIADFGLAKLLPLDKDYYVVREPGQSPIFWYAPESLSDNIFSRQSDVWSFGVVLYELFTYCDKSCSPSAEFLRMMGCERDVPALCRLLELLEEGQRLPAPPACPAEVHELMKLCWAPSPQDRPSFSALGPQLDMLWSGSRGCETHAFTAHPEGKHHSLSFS
The assay can be described thus: In vitro JAK kinase assay (HTRF, phosphorylation of a biotinylated peptide), JAK3. In a few lines: as §1

The target in assay [3] is T3, human JAK2 (a.a. 828-1132) (Homo sapiens, UniProt O60674).
T3 construct: JAK2 (a.a. 828-1132); His tag (N); made in house; host or cells: insect cells (baculovirus)
T3 sequence (O60674 828-1132): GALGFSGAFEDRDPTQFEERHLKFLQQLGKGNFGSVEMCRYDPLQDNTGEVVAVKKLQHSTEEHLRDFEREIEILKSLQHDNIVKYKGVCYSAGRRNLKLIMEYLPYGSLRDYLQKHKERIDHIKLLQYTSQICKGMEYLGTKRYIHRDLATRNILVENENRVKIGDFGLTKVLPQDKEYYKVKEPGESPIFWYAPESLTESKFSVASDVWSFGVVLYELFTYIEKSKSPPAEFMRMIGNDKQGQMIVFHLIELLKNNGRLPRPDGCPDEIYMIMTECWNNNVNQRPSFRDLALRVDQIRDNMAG
The assay can be described thus: In vitro JAK kinase assay (HTRF, phosphorylation of a biotinylated peptide), JAK2. In a few lines: as §1

We go through 16 compounds from patent US8871753B2, “Macrocyclic compounds and their use as kinase inhibitors” (Incyte Corporation, priority 2008, dated 2014).

Molecules are shown by their SMILES. Where a name gives a salt, the structure may show the parent alone. Read-outs that look alike come from different tables or passages of the source.

T1 sequence (P23458 849-1154): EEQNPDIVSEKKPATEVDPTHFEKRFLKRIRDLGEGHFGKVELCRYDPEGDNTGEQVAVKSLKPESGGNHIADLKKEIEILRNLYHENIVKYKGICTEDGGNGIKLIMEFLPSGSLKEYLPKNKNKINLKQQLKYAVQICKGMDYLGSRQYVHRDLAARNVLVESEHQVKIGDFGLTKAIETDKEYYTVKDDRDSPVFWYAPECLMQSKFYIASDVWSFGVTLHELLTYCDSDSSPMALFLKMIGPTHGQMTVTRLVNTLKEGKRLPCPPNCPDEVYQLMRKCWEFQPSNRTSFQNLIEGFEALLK

In general, IC50 refers to the concentration that gives 50% inhibition. Regarding `O=C(COc1ccc2cc1CCc1cncc(c1)Nc1ncc(Cl)c(n1)N2)N1CCN(C(=O)c2ccc(F)cc2F)CC1` [Example D259, 6-Chloro-12-{2-[4-(2,4-difluorobenzoyl)piperazin-1-yl]-2-oxoethoxy}-2,4,8,18,22-pentaazatetracyclo[14.3.1.1(3,7).1(9,13)]docosa-1(20),3(22),4,6,9(21),10,12,16,18-nonaene bis(trifluoroacetate)], the IC50 in assay [1] (Table D1, read-out: JAK1 IC50) was 42 nM; on TYK2 (Table D1), over 400 nM; in assay [2] (Table D1), over 400 nM; in assay [3] (Table D1) it was 37 nM.

For `O=C(CC1CN(c2nccs2)C1)Nc1ccc2cc1CCc1cncc(c1)Nc1ncc(Cl)c(n1)N2` [Example D152, N-[6-Chloro-2,4,8,18,22-pentaazatetracyclo[14.3.1.1(3,7).1(9,13)]docosa-1(20),3(22),4,6,9(21),10,12,16,18-nonaen-12-yl]-2-[1-(1,3-thiazol-2-yl)azetidin-3-yl]acetamide tris(trifluoroacetate)], the IC50 in assay [1] (Table D1, read-out: JAK1 IC50) was 21 nM; on TYK2 (Table D1), 265 nM; in assay [2] (Table D1) it was over 400 nM; in assay [3] (Table D1), 95 nM.

On to `Clc1cnc2nc1Nc1ccc(OCC3CCNCC3)c(c1)CCc1cncc(c1)N2` [Example D225, 6-Chloro-12-(piperidin-4-ylmethoxy)-2,4,8,18,22-pentaazatetracyclo[14.3.1.1(3,7).1(9,13)]docosa-1(20),3(22),4,6,9(21),10,12,16,18-nonaene tris(trifluoroacetate)], for which the IC50 in assay [1] (Table D1, read-out: JAK1 IC50) is 180 nM; at TYK2 (Table D1), over 400 nM; in assay [2] (Table D1), over 400 nM; in assay [3] (Table D1), over 400 nM.

For the compound `O=C(Nc1ccccc1)N1CCC(CCOc2ccc3cc2CCc2cncc(c2)Nc2ncc(Cl)c(n2)N3)CC1` [Example D162, 4-(2-{[6-Chloro-2,4,8,18,22-pentaazatetracyclo[14.3.1.1(3,7).1(9,13)]docosa-1(20),3(22),4,6,9(21),10,12,16,18-nonaen-12-yl]oxy}ethyl)-N-phenylpiperidine-1-carboxamide bis(trifluoroacetate)], the IC50 in assay [1] (Table D1, read-out: JAK1 IC50) was 10 nM; against TYK2 (Table D1), over 400 nM; in assay [2] (Table D1), over 400 nM; in assay [3] (Table D1), 71 nM.

`O=C(C[C@@H]1CCN(c2nc3ccccc3s2)C1)Nc1ccc2cc1CCc1cncc(c1)Nc1ncc(Cl)c(n1)N2` [Example D137, 2-[(3S)-1-(1,3-Benzothiazol-2-yl)pyrrolidin-3-yl]-N-[6-chloro-2,4,8,18,22-pentaazatetracyclo[14.3.1.1(3,7).1(9,13)]docosa-1(20),3(22),4,6,9(21),10,12,16,18-nonaen-12-yl]acetamide tris(trifluoroacetate)]: the IC50 was 1.6 nM in assay [1] (Table D1, read-out: JAK1 IC50); 66 nM against TYK2 (Table D1); over 1000 nM in assay [2] (Table D1); 15 nM in assay [3] (Table D1).

With `N#Cc1ccccc1S(=O)(=O)N1CCN(C(=O)COc2ccc3cc2CCc2cncc(c2)Nc2ncc(Cl)c(n2)N3)CC1` [Example D254, 2-{[4-({[6-Chloro-2,4,8,18,22-pentaazatetracyclo[14.3.1.1(3,7).1(9,13)]docosa-1(20),3(22),4,6,9(21),10,12,16,18-nonaen-12-yl]oxy}acetyl)piperazin-1-yl]sulfonyl}benzonitrile bis(trifluoroacetate)], the IC50 in assay [1] (Table D1, read-out: JAK1 IC50) is 8.1 nM; on TYK2 (Table D1), 356 nM; in assay [2] (Table D1), over 400 nM; in assay [3] (Table D1), 49 nM.

Consider `O=C(COc1ccc2cc1CCc1cncc(c1)Nc1ncc(Cl)c(n1)N2)N1CCN(c2nccc3occc23)CC1` [Example D245, 6-Chloro-12-[2-(4-furo[3,2-c]pyridin-4-ylpiperazin-1-yl)-2-oxoethoxy]-2,4,8,18,22-pentaazatetracyclo[14.3.1.1(3,7).1(9,13)]docosa-1(20),3(22),4,6,9(21),10,12,16,18-nonaene tris(trifluoroacetate)], for which the IC50 in assay [1] (Table D1, read-out: JAK1 IC50) was 75 nM; at TYK2 (Table D1), over 400 nM; in assay [2] (Table D1), over 400 nM; in assay [3] (Table D1), over 400 nM.

As for `Clc1cnc2nc1Nc1cccc(c1)OCCc1cc(CN3CCNCC3)cc(c1)N2` [Example D191, 6-Chloro-19-(piperazin-1-ylmethyl)-14-oxa-2,4,8,23-tetraazatetracyclo[15.3.1.1(3,7).1(9,13)]tricosa-1(21),3(23),4,6,9(22),10,12,17,19-nonaene tris(trifluoroacetate)], the concentration for half-maximal inhibition (IC50) came out at 34 nM in assay [1] (Table D1, read-out: JAK1 IC50); 8.9 nM against TYK2 (Table D1); 5.7 nM in assay [2] (Table D1); 1.4 nM in assay [3] (Table D1).

For `N#Cc1cccnc1N1CCN(C(=O)COc2ccc3cc2CCc2cncc(c2)Nc2ncc(Cl)c(n2)N3)CC1` [Example D238, 2-[4-({[6-Chloro-2,4,8,18,22-pentaazatetracyclo[14.3.1.1(3,7).1(9,13)]docosa-1(20),3(22),4,6,9(21),10,12,16,18-nonaen-12-yl]oxy}acetyl)piperazin-1-yl]nicotinonitrile tris(trifluoroacetate)], the IC50 in assay [1] (Table D1, read-out: JAK1 IC50) was 41 nM; at TYK2 (Table D1) it was over 400 nM; in assay [2] (Table D1) it was over 400 nM; in assay [3] (Table D1), over 400 nM.

`Cc1nc(CC(=O)Nc2ccc3cc2CCc2cccc(c2)Nc2ncc(Cl)c(n2)N3)cs1` [Example C38, N-[6-Chloro-2,4,8,22-tetraazatetracyclo[14.3.1.1(3,7).1(9,13)]docosa-1(20),3(22),4,6,9(21),10,12,16,18-nonaen-12-yl]-2-(2-methyl-1,3-thiazol-4-yl)acetamide trifluoroacetate]: the IC50 worked out at 37 nM in assay [1] (read-out: JAK1 IC50), 39 nM on TYK2, 1070 nM in assay [2] and 47 nM in assay [3].

In the case of `O=C(C[C@H]1CCCN(C(=O)Nc2ccccc2)C1)Nc1ccc2cc1CCc1cncc(c1)Nc1ncc(Cl)c(n1)N2` [Example D199, (3R)-3-(2-{[6-Chloro-2,4,8,18,22-pentaazatetracyclo[14.3.1.1(3,7).1(9,13)]docosa-1(20),3(22),4,6,9(21),10,12,16,18-nonaen-12-yl]amino}-2-oxoethyl)-N-phenylpiperidine-1-carboxamide bis(trifluoroacetate)], the IC50 turned out to be 5.7 nM in assay [1] (Table D1, read-out: JAK1 IC50); 21 nM on TYK2 (Table D1); 65 nM in assay [2] (Table D1); 8 nM in assay [3] (Table D1).

With `O=C(COc1ccc2cc1CCc1cncc(c1)Nc1ncc(Cl)c(n1)N2)N1CCN(c2cc(Cl)ccn2)CC1` [Example D244, 6-Chloro-12-{2-[4-(4-chloropyridin-2-yl)piperazin-1-yl]-2-oxoethoxy}-2,4,8,18,22-pentaazatetracyclo[14.3.1.1(3,7).1(9,13)]docosa-1(20),3(22),4,6,9(21),10,12,16,18-nonaene tris(trifluoroacetate)], the IC50 was 80 nM in assay [1] (Table D1, read-out: JAK1 IC50); over 400 nM against TYK2 (Table D1); over 400 nM in assay [2] (Table D1); 358 nM in assay [3] (Table D1).

As to `COc1ccc2cc1Nc1nc(ncc1Cl)Nc1cccc(c1)CC2` [Example A25, 6-Chloro-10-methoxy-2,4,8,22-tetraazatetracyclo[14.3.1.1(3,7).1(9,13)]docosa-1(20),3(22),4,6,9(21),10,12,16,18-nonaene trifluoroacetate], the IC50 in assay [1] (method AA1 (90 μM ATP) or AA2 (1000 μM ATP), not stated per value, read-out: JAK1 IC50) amounted to 38 nM; against TYK2, 122 nM; in assay [2] (method AA1 (3 μM ATP) or AA2 (1000 μM ATP), not stated per value) it was 14 nM; in assay [3] (method AA1 (30 μM ATP) or AA2 (1000 μM ATP), not stated per value), 21 nM.

For `CC(=O)N1CCC(CCOc2ccc3cc2CCc2cncc(c2)Nc2ncc(Cl)c(n2)N3)CC1` [Example D161, 12-[2-(1-Acetylpiperidin-4-yl)ethoxy]-6-chloro-2,4,8,18,22-pentaazatetracyclo[14.3.1.1(3,7).1(9,13)]docosa-1(20),3(22),4,6,9(21),10,12,16,18-nonaene bis(trifluoroacetate)], the IC50 is 85 nM in assay [1] (JAK1 IC50 (nM), Table D1); over 400 nM on TYK2 (Table D1); over 400 nM in assay [2] (Table D1); 276 nM in assay [3] (Table D1).

In the case of `Cc1cc(C(=O)N2CCC(CC(=O)Nc3ccc4cc3CCc3cccc(c3)Nc3ncc(F)c(n3)N4)CC2)no1` [Example C52, N-[6-Fluoro-2,4,8,22-tetraazatetracyclo[14.3.1.1(3,7).1(9,13)]docosa-1(20),3(22),4,6,9(21),10,12,16,18-nonaen-12-yl]-2-{1-[(5-methylisoxazol-3-yl)carbonyl]piperidin-4-yl}acetamide trifluoroacetate], the IC50 (in assay [1] (read-out: JAK1 IC50); on TYK2; in assay [2]; in assay [3]) was over 200 nM each time.

For `O=C(C[C@@H]1CCN(C(=O)Nc2ccccc2F)C1)Nc1ccc2cc1CCc1cncc(c1)Nc1ncc(Cl)c(n1)N2` [Example D135, (3S)-3-(2-{[6-Chloro-2,4,8,18,22-pentaazatetracyclo[14.3.1.1(3,7).1(9,13)]docosa-1(20),3(22),4,6,9(21),10,12,16,18-nonaen-12-yl]amino}-2-oxoethyl)-N-(2-fluorophenyl)pyrrolidine-1-carboxamide bis(trifluoroacetate)], the IC50 in assay [1] (Table D1, read-out: JAK1 IC50) was 60 nM; at TYK2 (Table D1), over 1000 nM; in assay [2] (Table D1) it was over 1000 nM; in assay [3] (Table D1) it was 314 nM.
